The NIST ThermoML archive (doi:10.1016/j.jct.2009.01.008)
± gives the expanded uncertainty stated by the source.

Assays:
[1] = xn = mol fraction of the nth substance listed; settings: 101 kPa, Liquid, Linear variable-path acoustic interferometer
[2] = 101 kPa, Liquid, Linear variable-path acoustic interferometer
[3] = refractive index (Na D-line) (dimensionless); settings: 298.15 K; 101.33 kPa; Liquid

COC(C)(C)C [2-methoxy-2-methylpropane] + Cc1ccccc1
speed of sound [m/s], [1]
Settings	298.15 K	308.15 K	318.15 K	328.15 K
x1 = 0.1021	1277.4 ± 1.7	1234.5 ± 1.7	1192 ± 1.6	1149.9 ± 1.6
x1 = 0.2035	1250 ± 1.7	1206.7 ± 1.6	1163.9 ± 1.6	1121.6 ± 1.6
x1 = 0.2591	1234.8 ± 1.7	1191.3 ± 1.6	1148.5 ± 1.6	1106.1 ± 1.6
x1 = 0.3321	1215.2 ± 1.7	1171.6 ± 1.6	1128.4 ± 1.6	1086.2 ± 1.6
x1 = 0.4008	1196.7 ± 1.6	1152.9 ± 1.6	1109.5 ± 1.6	1066.9 ± 1.6
x1 = 0.4665	–	–	–	1049.4 ± 1.6
x1 = 0.5323	–	–	–	1030.2 ± 1.6
x1 = 0.5894	1145.8 ± 1.6	1101.5 ± 1.6	1057.6 ± 1.6	–
x1 = 0.664	1125.8 ± 1.6	1081.2 ± 1.6	1037 ± 1.6	–
x1 = 0.7257	–	–	1020.4 ± 1.6	976.5 ± 1.5
x1 = 0.7956	–	1045.7 ± 1.6	1001 ± 1.5	958.4 ± 1.5
x1 = 0.8643	1072.3 ± 1.6	1027.1 ± 1.6	982.4 ± 1.5	–
x1 = 0.9025	1062.2 ± 1.6	1016.8 ± 1.6	971.6 ± 1.5	–
x1 = 1	1036.4 ± 1.6	990.8 ± 1.5	945.3 ± 1.5	–

Cc1ccccc1 [toluene]
[2]
Settings	speed of sound [m/s]
298.15 K	1305.4 ± 1.7
308.15 K	1262.6 ± 1.7
318.15 K	1220.3 ± 1.7
328.15 K	1178.6 ± 1.6

Settings	refractive index
[3]	1.4941 ± 0.0001

Cc1ccccc1 [toluene] + CC(C)CC(C)(C)C
[1], x1 = 1
Settings	speed of sound [m/s]
298.15 K	1305.4 ± 1.7
308.15 K	1262.6 ± 1.7
318.15 K	1220.3 ± 1.7
328.15 K	1178.6 ± 1.6

Cc1ccccc1 [toluene] + COC(C)(C)C
[1], x2 = 0
Settings	speed of sound [m/s]
298.15 K	1305.4 ± 1.7
308.15 K	1262.6 ± 1.7
318.15 K	1220.3 ± 1.7
328.15 K	1178.6 ± 1.6
